Results from US20250262222A1, “HETEROCYCLIC COMPOUNDS, COMPOSITIONS THEREOF, AND METHODS OF TREATMENT THEREWITH” (BeiGene Switzerland GmbH, priority 2022, published 2025).

Experiments:
[1] = tested on: pERK1/2(THR202/TYR204) level in AsPC-1 cell line; assay: KRAS G12D pERK assay; type: cell-based; conditions: Homo sapiens, ASPC1, 2 h, AsPC-1 cells, 2 h compound treatment, HTRF
Summary of the method: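 AsPC-1 (KRAS G12D) cells, 30000/well, seeded overnight, then treated 2 h with a 10-point series at 0 to 10 μM final. Lysate pERK1/2 (Thr202/Tyr204) detected by HTRF after overnight antibody incubation at room temperature; IC50 from percent inhibition versus log concentration.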

[2] = tested on: ERK1/2 phosphorylation in SW1990 tumors; assay: SW1990 PD studies; type: in vivo, Female NCG mice; conditions: oral administration
Method: Female NCG mice were subcutaneously implanted with 5×10^6 SW1990 cells per 200 μL PBS/matrigel in the right flank. After inoculation, when tumors reached a mean volume of approximately 350-450 mm^3 in size, mice were randomized into treatment groups. Randomized mice would receive a single dose of vehicle consisting of 0.5% MC or test compounds at various dose (e.g. 30, 50, or 100 mg/kg) by oral administration. Plasma was collected at 0.5, 2, 4, and 7 hours, and tumor was collected at 7 hours after dosing to determine exposure levels. Tumor fragments were snap frozen in homogenization tubes with liquid nitrogen and homogenized with T-PER Tissue Protein Extraction Buffer with protease and phosphatase inhibitors added fresh before use. Tumor lysates were then analyzed for ERK1/2 phosphorylation.

[3] = Gastrointestinal accumulation and toxicity, mono-basic vs dibasic G12D inhibitors (method not described); type: in vivo; conditions: compared to dibasic G12D inhibitors (e.g., Example 17)
Mouse and rat PK study = type: in vivo, male CD-1 mice or SD-JVC rats; conditions: compared to dibasic G12D inhibitors (e.g., Example 17)
Method: The pharmacokinetics of compounds were evaluated in male CD-1 mice or SD-JVC rats via intravenous and oral administration. For intravenous administration study, test compounds were dissolved in DMA:30% Solutol HS 15(w/v): Saline (20:20:60, by volume) and injected with a 1 mg/kg dose via tail vein. For oral administration study, test compounds were dissolved in 0.5% MC or PEG400/Phosal 50 PG/EtOH (30/60/10, by volume) and administrated to mice at 10 mg/kg or 30 mg/kg by gavage. Animals will be grouped and treated according to body weight. At the time points after dosing (5 (IV only), 15, and 30 min and 1, 2, 4, 8 and 24 h after administration), Rat blood samples will be collected from JVC, Mice will be anesthetized by isoflurane and blood samples will be collected from orbital bleeding. Blood samples will be collected into 1.5 mL EDTA.K2 coated EP tube. Approximately 50 μL blood (Mouse) and 150 μL blood (Rat) were collected at each time point and placed on ice, then centrifuge at 5600 rpm 7 min at 4° C. to obtain plasma. Plasma will be transferred into new tube and stored at −20° C. or dry ice temporary. The samples will be stored at −80° C. until ex vivo PK assay.
Plasma concentrations were determined via the following sample processing method and measurement conditions. An aliquot of 10 μL sample was added with 200 μL IS (Terfenadine, 5 ng/mL) in ACN. […]

| Structure (SMILES) | IC50 [1] [nM] | oral pharmacodynamic effects [2] | gastrointestinal accumulation [3] | toxicity [3] | oral exposure (Mouse and rat PK study) |
| --- | --- | --- | --- | --- | --- |
| Cc1cc(N)cc(-c2nc3c4c(nc(OCC56COC(C(F)F)(C5)C6)nc4c2F)N2C[C@H]4CC[C@H](N4)[C@H]2CCO3)c1C(F)(F)F [Example 29, 3-((6aR,7S,10R)-13-((1-(difluoromethyl)-2-oxabicyclo[2.1.1]hexan-4-yl)methoxy)-1-fluoro-5,6,6a,7,8,9,10,11-octahydro-4-oxa-3,11a,12,14,15-pentaaza-7,10-methanocyclohepta[4,5]cyclo-octa[1,2,3-de]naphthalen-2-yl)-5-methyl-4-(trifluoromethyl)aniline] | 92 | enhanced oral pharmacodynamic effects | – | – | – |
| Nc1cc(Cl)c(C(F)(F)F)c(-c2nc3c4c(nc(OCC56COC(C5)C6)nc4c2F)N2C[C@H]4CC[C@H](N4)C2CCO3)c1 (stereo partly drawn) [Example 23, 3-((7S,10R)-13-((2-oxabicyclo[2.1.1]hexan-4-yl)methoxy)-1-fluoro-5,6,6a,7,8,9,10,11-octahydro-4-oxa-3,11a,12,14,15-pentaaza-7,10-methanocyclohepta[4,5]cycloocta[1,2,3-de]naphthalen-2-yl)-5-chloro-4-(trifluoromethyl)aniline] | 114 | – | reduced gastrointestinal accumulation | reduced toxicity | enhanced oral exposure |
| Cc1cc(N)cc(-c2nc3c4c(nc(OCC56COC(C5)C6)nc4c2F)N2C[C@H]4CC[C@H](N4)[C@H]2CCO3)c1C(F)(F)F [Example 27, 3-((6aR,7S,10R)-13-((2-oxabicyclo[2.1.1]hexan-4-yl)methoxy)-1-fluoro-5,6,6a,7,8,9,10,11-octahydro-4-oxa-3,11a,12,14,15-pentaaza-7,10-methanocyclohepta[4,5]cyclo-octa[1,2,3-de]naphthalen-2-yl)-5-methyl-4-(trifluoromethyl)aniline] | 203 | enhanced oral pharmacodynamic effects | – | – | – |
| Nc1cc(Cl)c(C(F)(F)F)c(-c2nc3c4c(nc(OCC56CCC(C5)OC6)nc4c2F)N2C[C@H]4CC[C@H](N4)[C@H]2CCO3)c1 [Example 41, 3-((6aR,7S,10R)-13-((2-oxabicyclo[2.2.1]heptan-4-yl)methoxy)-1-fluoro-5,6,6a,7,8,9,10,11-octahydro-4-oxa-3,11a,12,14,15-pentaaza-7,10-methanocyclohepta[4,5]cyclo-octa[1,2,3-de]naphthalen-2-yl)-5-chloro-4-(trifluoromethyl)aniline] | 112 | enhanced oral pharmacodynamic effects | – | – | – |
| Cc1cc(N)cc(-c2nc3c4c(nc(OCC5(C(F)F)COC5)nc4c2F)N2C[C@H]4CC[C@H](N4)[C@H]2CCO3)c1C(F)(F)F [Example 26, 3-((6aR,7S,10R)-13-((3-(difluoromethyl)oxetan-3-yl)methoxy)-1-fluoro-5,6,6a,7,8,9,10,11-octahydro-4-oxa-3,11a,12,14,15-pentaaza-7,10-methanocyclohepta[4,5]cycloocta[1,2,3-de]naphthalen-2-yl)-5-methyl-4-(trifluoromethyl)aniline] | 142 | enhanced oral pharmacodynamic effects | – | – | – |
| Nc1cc(Cl)c(C(F)(F)F)c(-c2nc3c4c(nc(OCC5(C(F)F)COC5)nc4c2F)N2C[C@H]4CC[C@H](N4)[C@H]2CCO3)c1 [Example 32, 3-chloro-5-((6aR,7S,10R)-13-((3-(difluoromethyl)oxetan-3-yl)methoxy)-1-fluoro-5,6,6a,7,8,9,10,11-octahydro-4-oxa-3,11a,12,14,15-pentaaza-7,10-methanocyclohepta[4,5]cyclo-octa[1,2,3-de]naphthalen-2-yl)-4-(trifluoromethyl)aniline] | 117 | enhanced oral pharmacodynamic effects | – | – | – |
| Nc1cc(Cl)c(C(F)(F)F)c(-c2nc3c4c(nc(OCC56CCC(CC5)OC6)nc4c2F)N2C[C@H]4CC[C@H](N4)[C@H]2CCO3)c1 [Example 40, 3-((6aR,7S,10R)-13-((2-oxabicyclo[2.2.2]octan-4-yl)methoxy)-1-fluoro-5,6,6a,7,8,9,10,11-octahydro-4-oxa-3,11a,12,14,15-pentaaza-7,10-methanocyclohepta[4,5]cyclo-octa[1,2,3-de]naphthalen-2-yl)-5-chloro-4-(trifluoromethyl)aniline] | 303 | enhanced oral pharmacodynamic effects | – | – | – |
